{"source": "patent US20070117743A1", "about": "“New antitumoral compounds” (priority 2003, published 2007)", "type_in_all_cases": "cell-based, human", "key": {"[1]": {"tested_on": "HT-29", "experiment": "SRB colorimetric assay of cell growth and viability, HT-29", "settings": "48 hours exposure, SRB; for GI50: read-out: GI50 HT-29; for CC50: read-out: LC50 HT-29"}, "[2]": {"tested_on": "HeLa-APL", "experiment": "SRB colorimetric assay of cell growth and viability, HeLa-APL", "settings": "48 hours exposure, SRB; for CC50: read-out: LC50 HELA-APL"}, "[3]": {"tested_on": "HeLa", "experiment": "SRB colorimetric assay of cell growth and viability, HeLa", "settings": "48 hours exposure, SRB; for CC50: read-out: LC50 HELA"}, "[4]": {"tested_on": "DU-145", "experiment": "SRB colorimetric assay of cell growth and viability, DU-145", "settings": "48 hours exposure, SRB"}, "[5]": {"tested_on": "IGROV-1", "experiment": "SRB colorimetric assay of cell growth and viability, IGROV-1", "settings": "48 hours exposure, SRB"}, "[6]": {"tested_on": "LoVo", "experiment": "SRB colorimetric assay of cell growth and viability, LoVo", "settings": "48 hours exposure, SRB; for CC50: read-out: LC50 LOVO"}, "[7]": {"tested_on": "LoVo-Dox", "experiment": "SRB colorimetric assay of cell growth and viability, LoVo-Dox", "settings": "48 hours exposure, SRB; for CC50: read-out: LC50 LOVO-DOX", "procedure,_shortened": "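First, 5×10^3 cells per well attach for 18 hours in RPMI 1640 with 10% FBS at 37° C and 5% CO2. Next, samples spanning 10 to 10^−8 μg/mL are added for 48 hours. Finally, cells are fixed with TCA, stained with SRB for 10 minutes and read at 490 nm.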"}, "[8]": {"tested_on": "A-549", "experiment": "SRB colorimetric assay of cell growth and viability, A-549", "settings": "48 hours exposure, SRB; for GI50: read-out: GI50 A-549; for CC50: read-out: LC50 A-549"}, "[9]": {"tested_on": "SK-MEL-28", "experiment": "SRB colorimetric assay of cell growth and viability, SK-MEL-28", "settings": "48 hours exposure, SRB; for CC50: read-out: LC50 MEL-28"}, "[10]": {"tested_on": "IGROV-ET", "experiment": "SRB colorimetric assay of cell growth and viability, IGROV-ET", "settings": "48 hours exposure, SRB; for CC50: read-out: LC50 IGROV-ET"}, "[11]": {"tested_on": "K-562", "experiment": "SRB colorimetric assay of cell growth and viability, K-562", "settings": "48 hours exposure, SRB; for CC50: read-out: LC50 K-562"}, "[12]": {"tested_on": "SK-BR-3", "experiment": "SRB colorimetric assay of cell growth and viability, SK-BR-3", "settings": "48 hours exposure, SRB"}, "[13]": {"tested_on": "PANC-1", "experiment": "SRB colorimetric assay of cell growth and viability, PANC-1", "settings": "48 hours exposure, SRB; for CC50: read-out: LC50 PANC-1"}}, "note": "Where a SMILES comes first, the peptide text is derived from it. Bridges are numbered along the chain shown (N, C = ends). [ ]: non-standard residue; d: D form. The star is where a group is joined. ξ: configuration not given here. Pro(3ξ,4ξ-(CH2)4) = O=C(O)[C@H]1NCC2CCCCC21; Hexanoyl(4S-Me) = CC[C@H](C)CCC(=O)*; d(aIle) = CC[C@H](C)[C@@H](N)C(=O)O; d(aThr) = C[C@@H](O)[C@@H](N)C(=O)O; Orn = NCCC[C@H](N)C(=O)O; Dhb = C/C=C(\\N)C(=O)O"}
{"smiles": "C/C=C1\\NC(=O)[C@@H]2C3CCCCC3CN2C(=O)[C@@H](C(C)C)NC(=O)[C@@H]([C@@H](C)CC)NC(=O)[C@H](NC(=O)[C@H](NC(=O)[C@H](CCCN)NC(=O)[C@H]2CCCN2C(=O)[C@H](NC(=O)[C@@H](NC(=O)[C@@H](NC(=O)[C@H](NC(=O)CC[C@@H](C)CC)C(C)C)[C@@H](C)O)C(C)C)C(C)C)[C@@H](C)CC)[C@@H](C)OC(=O)[C@H](C(C)C)NC1=O", "note": "(stereo partly drawn) [Compound 79, [Oic^3, (4S)-MeHex^14]-KF] ({Hexanoyl(4S-Me)}-[dV]TV[dV][dP][Orn][d(aIle)][d(aThr)][d(aIle)][dV][Pro(3ξ,4ξ-(CH2)4)][Dhb]V; ester 8-C)", "values": [{"measurement": "TGI HT-29", "setting": "[1]", "value": "2.43E−06", "unit": "Molar"}, {"measurement": "GI50", "setting": "[1]", "value": 1.44, "unit": "µM"}, {"measurement": "CC50", "setting": "[1]", "value": 4.09, "unit": "µM"}, {"measurement": "GI50", "setting": "[2]", "value": 4.8, "unit": "µM"}, {"measurement": "TGI HELA-APL", "setting": "[2]", "value": "6.75E−06", "unit": "Molar"}, {"measurement": "CC50", "setting": "[2]", "value": "≥ 6.75", "unit": "µM"}, {"measurement": "GI50", "setting": "[3]", "value": 2.69, "unit": "µM"}, {"measurement": "TGI HELA", "setting": "[3]", "value": "6.75E−06", "unit": "Molar"}, {"measurement": "CC50", "setting": "[3]", "value": "≥ 6.75", "unit": "µM"}, {"measurement": "GI50", "setting": "[4]", "value": 6.01, "unit": "µM"}, {"measurement": "LC50 (concentration causing 50% net cell kill)", "setting": "[4]", "value": "≥ 6.75", "unit": "µM"}, {"measurement": "TGI DU-145", "setting": "[4]", "value": "6.75E−06", "unit": "Molar"}, {"measurement": "GI50", "setting": "[5]", "value": 1.91, "unit": "µM"}, {"measurement": "LC50 (concentration causing 50% net cell killing)", "setting": "[5]", "value": 5.55, "unit": "µM"}, {"measurement": "TGI IGROV", "setting": "[5]", "value": "3.25E−06", "unit": "Molar"}, {"measurement": "GI50", "setting": "[6]", "value": 0.591, "unit": "µM"}, {"measurement": "TGI LOVO", "setting": "[6]", "value": "1.40E−06", "unit": "Molar"}, {"measurement": "CC50", "setting": "[6]", "value": 3.02, "unit": "µM"}, {"measurement": "GI50", "setting": "[7]", "value": 0.387, "unit": "µM"}, {"measurement": "TGI LOVO-DOX", "setting": "[7]", "value": "1.15E−06", "unit": "Molar"}, {"measurement": "CC50", "setting": "[7]", "value": 2.56, "unit": "µM"}, {"measurement": "TGI A-549", "setting": "[8]", "value": "6.75E−06", "unit": "Molar"}, {"measurement": "GI50", "setting": "[8]", "value": 4.42, "unit": "µM"}, {"measurement": "CC50", "setting": "[8]", "value": "≥ 6.75", "unit": "µM"}, {"measurement": "GI50", "setting": "[9]", "value": 2.31, "unit": "µM"}, {"measurement": "TGI MEL-28", "setting": "[9]", "value": "6.75E−06", "unit": "Molar"}, {"measurement": "CC50", "setting": "[9]", "value": "≥ 6.75", "unit": "µM"}, {"measurement": "GI50", "setting": "[10]", "value": 1.98, "unit": "µM"}, {"measurement": "TGI IGROV-ET", "setting": "[10]", "value": "4.28E−06", "unit": "Molar"}, {"measurement": "CC50", "setting": "[10]", "value": "≥ 6.75", "unit": "µM"}, {"measurement": "GI50", "setting": "[11]", "value": 1.71, "unit": "µM"}, {"measurement": "TGI K-562", "setting": "[11]", "value": "4.02E−06", "unit": "Molar"}, {"measurement": "CC50", "setting": "[11]", "value": "≥ 6.75", "unit": "µM"}, {"measurement": "GI50", "setting": "[12]", "value": 0.796, "unit": "µM"}, {"measurement": "LC50", "setting": "[12]", "value": 3.43, "unit": "µM"}, {"measurement": "TGI SK-BR-3", "setting": "[12]", "value": "1.65E−06", "unit": "Molar"}, {"measurement": "GI50", "setting": "[13]", "value": "≥ 6.75", "unit": "µM"}, {"measurement": "TGI PANC-1", "setting": "[13]", "value": "6.75E−06", "unit": "Molar"}, {"measurement": "CC50", "setting": "[13]", "value": "≥ 6.75", "unit": "µM"}]}
{"smiles": "C/C=C1\\NC(=O)[C@H](Cc2ccc(O)cc2)NC(=O)[C@@H](C(C)C)NC(=O)[C@@H]([C@@H](C)CC)NC(=O)[C@H](NC(=O)[C@H](NC(=O)[C@H](CCCN)NC(=O)[C@H]2CCCN2C(=O)[C@H](NC(=O)[C@@H](NC(=O)[C@@H](NC(=O)[C@H](NC(=O)CC[C@@H](C)CC)C(C)C)[C@@H](C)O)C(C)C)C(C)C)[C@@H](C)CC)[C@@H](C)OC(=O)[C@H](C(C)C)NC1=O", "note": "[Compound 78, [Tyr^3, (4S)-MeHex^14]-KF] ({Hexanoyl(4S-Me)}-[dV]TV[dV][dP][Orn][d(aIle)][d(aThr)][d(aIle)][dV]Y[Dhb]V; ester 8-C)", "values": [{"measurement": "TGI HT-29", "setting": "[1]", "value": "1.99E−06", "unit": "Molar"}, {"measurement": "GI50", "setting": "[1]", "value": 1.08, "unit": "µM"}, {"measurement": "CC50", "setting": "[1]", "value": 3.7, "unit": "µM"}, {"measurement": "GI50", "setting": "[2]", "value": 0.964, "unit": "µM"}, {"measurement": "TGI HELA-APL", "setting": "[2]", "value": "1.81E−06", "unit": "Molar"}, {"measurement": "CC50", "setting": "[2]", "value": 3.42, "unit": "µM"}, {"measurement": "GI50", "setting": "[3]", "value": 1.16, "unit": "µM"}, {"measurement": "TGI HELA", "setting": "[3]", "value": "1.97E−06", "unit": "Molar"}, {"measurement": "CC50", "setting": "[3]", "value": 3.36, "unit": "µM"}, {"measurement": "GI50", "setting": "[4]", "value": 1.27, "unit": "µM"}, {"measurement": "LC50 (concentration causing 50% net cell kill)", "setting": "[4]", "value": 3.76, "unit": "µM"}, {"measurement": "TGI DU-145", "setting": "[4]", "value": "2.18E−06", "unit": "Molar"}, {"measurement": "GI50", "setting": "[5]", "value": 0.877, "unit": "µM"}, {"measurement": "LC50 (concentration causing 50% net cell killing)", "setting": "[5]", "value": 3.33, "unit": "µM"}, {"measurement": "TGI IGROV", "setting": "[5]", "value": "1.71E−06", "unit": "Molar"}, {"measurement": "GI50", "setting": "[6]", "value": 0.39, "unit": "µM"}, {"measurement": "TGI LOVO", "setting": "[6]", "value": "1.16E−06", "unit": "Molar"}, {"measurement": "CC50", "setting": "[6]", "value": 2.71, "unit": "µM"}, {"measurement": "GI50", "setting": "[7]", "value": 0.135, "unit": "µM"}, {"measurement": "TGI LOVO-DOX", "setting": "[7]", "value": "2.89E−07", "unit": "Molar"}, {"measurement": "CC50", "setting": "[7]", "value": 0.621, "unit": "µM"}, {"measurement": "TGI A-549", "setting": "[8]", "value": "2.23E−06", "unit": "Molar"}, {"measurement": "GI50", "setting": "[8]", "value": 1.27, "unit": "µM"}, {"measurement": "CC50", "setting": "[8]", "value": 3.92, "unit": "µM"}, {"measurement": "GI50", "setting": "[9]", "value": 1.12, "unit": "µM"}, {"measurement": "TGI MEL-28", "setting": "[9]", "value": "2.01E−06", "unit": "Molar"}, {"measurement": "CC50", "setting": "[9]", "value": 3.59, "unit": "µM"}, {"measurement": "GI50", "setting": "[10]", "value": 0.93, "unit": "µM"}, {"measurement": "TGI IGROV-ET", "setting": "[10]", "value": "1.79E−06", "unit": "Molar"}, {"measurement": "CC50", "setting": "[10]", "value": 3.42, "unit": "µM"}, {"measurement": "GI50", "setting": "[11]", "value": 1.65, "unit": "µM"}, {"measurement": "TGI K-562", "setting": "[11]", "value": "3.78E−06", "unit": "Molar"}, {"measurement": "CC50", "setting": "[11]", "value": 6.69, "unit": "µM"}, {"measurement": "GI50", "setting": "[12]", "value": 0.266, "unit": "µM"}, {"measurement": "LC50", "setting": "[12]", "value": 2.58, "unit": "µM"}, {"measurement": "TGI SK-BR-3", "setting": "[12]", "value": "1.02E−06", "unit": "Molar"}, {"measurement": "GI50", "setting": "[13]", "value": 2.56, "unit": "µM"}, {"measurement": "TGI PANC-1", "setting": "[13]", "value": "6.69E−06", "unit": "Molar"}, {"measurement": "CC50", "setting": "[13]", "value": 6.69, "unit": "µM"}]}
